These results are taken from ChEMBL document CHEMBL2331400, “Structure-based design and evaluation of naphthalene diimide G-quadruplex ligands as telomere targeting agents in pancreatic cancer cells” (J Med Chem, 2013).

What is called IC50 is the point on the concentration scale where inhibition reaches its midpoint. For orientation: ΔTm means the change in melting temperature against a reference sample.

Active and inactive are the calls of the source. The calls are words filed in the database; no cut-off is given here.

One data set has as its system A549. Nature of the data set: Cytotoxicity against human A549 cells assessed as growth inhibition after 96 hrs by SRB assay. Particulars: A549, 96 h. The data set is classed as functional, cell-based.
The species entered for the next data set is Homo sapiens. As to the kind of experiment: Stabilization of human telomeric G-quadruplex DNA sequence 5'-FAM-d(GGG[TTAGGG]3)-TAMRA-3' assessed as melting temperature at 1 uM by FRET assay.
For data set [1], the system named is unidentified. Nature of the data set: Stabilization of duplex DNA T-loop (unknown origin) 5'-FAM-dTATAGCTATA-HEG-TATAGCTATA-TAMRA-3' assessed as melting temperature at 1 uM by FRET assay.
Data set [2] is described as follows: Cytotoxicity against human RCC4 cells assessed as growth inhibition after 96 hrs by SRB assay. The class given is functional, cell-based. The conditions noted are these: RCC4, 96 h. (The SRB assay estimates cell density from bound dye.)
Data set [3] deals with MIA PaCa-2. Nature of the data set: Cytotoxicity against human MIAPaCa2 cells assessed as growth inhibition after 96 hrs by SRB assay. The data set is classed as functional, cell-based. The conditions noted are these: MIA PaCa-2, 96 h.
The subject of the next data set is MCF7. Nature of the data set: Cytotoxicity against human MCF7 cells assessed as growth inhibition after 96 hrs by SRB assay. The conditions noted are these: MCF7, 96 h. The class given is functional, cell-based.
Data set [4] relates to unidentified. Nature of the data set: Stabilization of HSP90a promoter sequence 5'-FAM-d(GGGCCAAAGGGAAGGGGTGGG)-TAMRA-3' (unknown origin) assessed as melting temperature at 1 uM by FRET assay.
Data set [5] concerns unidentified. As to the kind of experiment: Stabilization of HSP90b promoter sequence 5'-FAM-d(GGGCGGGCCAAAGGGAAGGGG)-TAMRA-3' (unknown origin) assessed as melting temperature at 1 uM by FRET assay.
In the next data set the test system is WI-38. Nature of the data set: Cytotoxicity against human WI38 cells assessed as growth inhibition after 96 hrs by SRB assay. The class given is cell-based. The conditions noted are these: WI-38, 96 h.
Another data set has as its system 786-0. As to the kind of experiment: Cytotoxicity against human 786-0 cells assessed as growth inhibition after 96 hrs by SRB assay. Particulars: 786-0, 96 h. The class given is functional, cell-based.
Data set [6] deals with MIA PaCa-2. As to the kind of experiment: Induction of senescence in human MIAPaCa2 cells at 25 to 50 nM after 7 days by beta-galactosidase assay relative to vehicle-treated control. The class given is functional, cell-based.
Data set [7] deals with MIA PaCa-2. Nature of the data set: Inhibition of telomerase activity in human MIAPaCa2 cells assessed as telomere elongation at 25 to 50 nM by TRAP-LIG assay. The class given is cell-based.
A short description of data set [8]: Selectivity ratio of IC50 for human WI-38 cells to IC50 for human 786-0 cells. The class given is ADME, cell-based. The conditions noted are these: WI-38 cells versus 786-0 cells, read-out: Ratio IC50.
For data set [9], the system named is MIA PaCa-2. As to the kind of experiment: Inhibition of telomerase activity in human MIAPaCa2 cells assessed as telomere elongation up to 10 uM after 7 days by TRAP-LIG assay. The data set is classed as cell-based.
The subject of data set [10] is MIA PaCa-2. As to the kind of experiment: Induction of senescence in human MIAPaCa2 cells at 3.3 to 6.6 nM after 7 days by beta-galactosidase assay relative to vehicle-treated control. The class given is functional.

For `CN1CCN(CCCNc2cc3c4c(c(NCCCN5CCN(C)CC5)cc5c4c2C(=O)N(CCN2CCOCC2)C5=O)C(=O)N(CCN2CCOCC2)C3=O)CC1`, the IC50 amounted to 1550 nM in the data set on A549; 1750 nM in data set [2]; 40 nM with MIA PaCa-2 [3]; 170 nM with MCF7; 610 nM in the data set with WI-38; 630 nM in the data set on 786-0. Further, the ΔTm in the data set filed under Homo sapiens turned out to be 27 °C; in the data set with unidentified [1] it was 0.8 °C; in the data set with unidentified [4] it was 33.9 °C; in the data set with unidentified [5], 29.1 °C.
In the case of `CN1CCN(CCCNc2cc3c4c(c(NCCCN5CCN(C)CC5)cc5c4c2C(=O)N(CCCN2CCN(C)CC2)C5=O)C(=O)N(CCCN2CCN(C)CC2)C3=O)CC1`, the ΔTm in the data set filed under Homo sapiens is 28.3 °C; with unidentified [1], 1.3 °C; with unidentified [4], 36.3 °C; in the data set with unidentified [5], 32 °C. Moreover, in the data set on MIA PaCa-2 [6], the outcome was Active. In addition, the inhibition result in the data set with MIA PaCa-2 [7] is “inactive”. Also, the IC50 in the data set on WI-38 was determined as 9000 nM.
Consider `CN1CCN(CCCNc2cc3c4c(c(NCCCN5CCN(C)CC5)cc5c4c2C(=O)N(CC2CCOCC2)C5=O)C(=O)N(CC2CCOCC2)C3=O)CC1`, for which the IC50 came out at 2920 nM in the data set on A549; 8380 nM in data set [2]; 2500 nM in the data set on MIA PaCa-2 [3]; 3120 nM in the data set on MCF7; 12600 nM in the data set on WI-38; 1200 nM in the data set on 786-0. The ΔTm in the data set listed under Homo sapiens is 0.1 °C; in the data set with unidentified [1], 0.2 °C; with unidentified [4], 0.7 °C; with unidentified [5], 0.8 °C. The selectivity ratio in [8] is 10.
In the case of `CN1CCN(CCNc2cc3c4c(c(NCCN5CCN(C)CC5)cc5c4c2C(=O)N(CCCN2CCOCC2)C5=O)C(=O)N(CCCN2CCOCC2)C3=O)CC1`, the IC50 with A549 is below 10 nM; in data set [2] it was 280 nM; in the data set on MIA PaCa-2 [3], 10 nM; with MCF7 it was 30 nM; in the data set with WI-38 it was 2460 nM. Also, the inhibition entry in the data set on MIA PaCa-2 [9] is “inactive”. The ΔTm in the data set filed under Homo sapiens was 27.8 °C; in the data set on unidentified [1], 8.1 °C; in the data set on unidentified [4], 31.9 °C; with unidentified [5] it was 31.1 °C.
For the compound `CN1CCN(CCCNc2cc3c4c(c(NCCCN5CCN(C)CC5)cc5c4c2C(=O)N(CC2CCCO2)C5=O)C(=O)N(CC2CCCO2)C3=O)CC1` (racemic), the IC50 in the data set with A549 is 5570 nM; in data set [2], above 10000 nM; with MIA PaCa-2 [3], 5650 nM; in the data set with MCF7 it was above 10000 nM; with WI-38 it was above 10000 nM; in the data set with 786-0 it was above 10000 nM. Also, the inhibition entry in the data set on MIA PaCa-2 [9] is “inactive”. The ΔTm came to 22.7 °C in the data set listed under Homo sapiens, 0.2 °C in the data set on unidentified [1], 27.1 °C with unidentified [4] and 21 °C in the data set on unidentified [5].
On to `COCCCN1C(=O)c2cc(NCCCN3CCN(C)CC3)c3c4c(cc(NCCCN5CCN(C)CC5)c(c24)C1=O)C(=O)N(CCCOC)C3=O`, for which the IC50 turned out to be 2540 nM with A549; 10500 nM in data set [2]; 2790 nM in the data set on MIA PaCa-2 [3]; 5620 nM in the data set with MCF7; 3320 nM with WI-38; 7170 nM in the data set on 786-0. Besides, the inhibition result in the data set with MIA PaCa-2 [9] was “inactive”. Also, the ΔTm in the data set filed under Homo sapiens turned out to be 0.5 °C; in the data set with unidentified [1] it was 0 °C; in the data set on unidentified [4] it was 29 °C; in the data set with unidentified [5] it was 23.8 °C.
As to `CN1CCN(CCNc2cc3c4c(c(NCCN5CCN(C)CC5)cc5c4c2C(=O)N(CCN2CCOCC2)C5=O)C(=O)N(CCN2CCOCC2)C3=O)CC1`, the IC50 is 4930 nM in the data set on A549; 5100 nM in [2]; 180 nM with MCF7; 1170 nM with WI-38; 1480 nM in the data set on 786-0. Also, the ΔTm in the data set filed under Homo sapiens is 24.7 °C; in the data set on unidentified [1], 1.7 °C; with unidentified [4], 30.6 °C; in the data set on unidentified [5], 27.6 °C.
Compound `CN1CCN(CCCNc2cc3c4c(c(NCCCN5CCN(C)CC5)cc5c4c2C(=O)N(Cc2ccco2)C5=O)C(=O)N(Cc2ccco2)C3=O)CC1` registered an Activity in the data set with MIA PaCa-2 [10] of 50%. Besides, the IC50 in the data set on A549 stood at 2410 nM; in data set [2] it was 3110 nM; in the data set with MIA PaCa-2 [3], 2830 nM; in the data set with MCF7, 2610 nM; in the data set with WI-38, 6840 nM; with 786-0, 1100 nM. The ΔTm in the data set listed under Homo sapiens worked out at 0.2 °C; with unidentified [1], 0.3 °C; in the data set with unidentified [4] it was 0.9 °C; with unidentified [5], 1.1 °C.
